Laboratory results: patent US10787434B2, “Benzopiperdine derivatives and their use in the treatment of cancer and hemoglobinopathies” (CTXT PTY LTD, priority 2016, dated 2020)
Counter-ions that a name gives are not always drawn.

Legend:
[1] = target: Full-length PRMT5 enzyme co-expressed with His6-MEP50 (Homo sapiens (Human), UniProt O14744); test: PRMT5 Biochemical Assay; conditions: Transcreener EPIGEN methyltransferase assay, histone H4 derived peptide substrate, 4 hours at 37 degree Celsius
Chain of Full-length PRMT5 enzyme co-expressed with His6-MEP50 (O14744 whole entry): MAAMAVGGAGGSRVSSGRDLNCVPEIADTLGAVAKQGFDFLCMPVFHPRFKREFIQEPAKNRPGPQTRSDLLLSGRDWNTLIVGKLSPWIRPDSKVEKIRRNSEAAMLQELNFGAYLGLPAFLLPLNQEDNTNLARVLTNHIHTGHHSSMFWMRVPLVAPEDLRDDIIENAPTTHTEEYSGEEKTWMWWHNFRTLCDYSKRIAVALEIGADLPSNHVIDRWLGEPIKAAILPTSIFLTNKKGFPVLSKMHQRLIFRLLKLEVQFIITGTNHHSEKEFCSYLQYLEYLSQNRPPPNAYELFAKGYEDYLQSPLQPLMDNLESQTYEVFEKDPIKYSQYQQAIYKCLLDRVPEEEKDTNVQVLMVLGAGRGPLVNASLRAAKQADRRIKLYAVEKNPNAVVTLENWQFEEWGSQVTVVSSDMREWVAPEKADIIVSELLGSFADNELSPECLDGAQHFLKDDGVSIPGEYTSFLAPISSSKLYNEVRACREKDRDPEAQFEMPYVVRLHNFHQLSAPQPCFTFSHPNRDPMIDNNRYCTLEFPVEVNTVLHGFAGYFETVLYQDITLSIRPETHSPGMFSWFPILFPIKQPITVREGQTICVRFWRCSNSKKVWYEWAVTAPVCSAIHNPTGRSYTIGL
Chain of Full-length PRMT5 enzyme co-expressed with His6-MEP50 (Q9BQA1 whole entry partner): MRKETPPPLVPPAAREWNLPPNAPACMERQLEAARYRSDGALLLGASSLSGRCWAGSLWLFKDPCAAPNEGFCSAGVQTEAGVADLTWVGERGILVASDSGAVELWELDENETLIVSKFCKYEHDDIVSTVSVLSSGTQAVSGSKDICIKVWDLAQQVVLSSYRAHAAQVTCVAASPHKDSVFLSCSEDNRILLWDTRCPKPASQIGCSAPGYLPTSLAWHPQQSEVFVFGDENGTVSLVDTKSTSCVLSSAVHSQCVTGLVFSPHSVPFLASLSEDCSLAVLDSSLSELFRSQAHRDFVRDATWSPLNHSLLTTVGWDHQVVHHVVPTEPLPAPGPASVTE
Protocol: Compounds of the invention may be tested for in vitro activity in the following assay:
A histone H4 derived peptide is used as substrate (amino acid sequence: […]NH2). Full-length PRMT5 enzyme (NCBI Reference sequence NP_006100.2) was co-expressed with His6-MEP50 in insect cells and purified via Nickel immobilized metal affinity and gel filtration chromatography (“the enzyme”).
The 6 μL reactions are run in Greiner brand black 384-well low volume assay plates. All reactions contained assay buffer (phosphate buffered saline, 0.01% (v/v) Tween-20, 0.01% (w/v) albumin from chicken egg white, 1 mM Dithiothreitol, 1 μM peptide substrate, 1 μM S-Adenosyl methionine, and 15 ng/reaction enzyme, with the enzyme being omitted from negative control reactions. Compounds were added in a volume of 100 nL from dilution series prepared in DMSO, positive and negative control reactions receiving the same volume DMSO without compound. The plates were sealed with adhesive seals and incubated for 4 hours at 37 degree Celsius. Reaction progress was measured using the Transcreener™ EPIGEN methyltransferase assay (BellBrook Labs, Madison, Wis.) as recommended by the manufacturer. To each reaction 2 μL detection mix were added, containing coupling enzymes, fluorescence polarisation tracer, and AMP antibody. Plates were incubated for 90 minutes before being read on a PerkinElmer EnVision™ plate reader in fluorescence polarisation mode. IC50 values were obtained from the raw readings by calculating percent inhibition (%1) for each reaction relative to controls on the same plate (% I=(I−CN)/(CP−CN) where CN/CP are the averages of the negative/positive reactions, respectively), then fitting the %1 data vs. compound concentration [I] to % I=(A+((B−A)/(1+((C/[I])^D)))) where A is the lower asymptote, B is the upper asymptote, C is the IC50 value, and D is the slope.

[2] = system: symmetrical dimethylation of arginine (Di-Methyl Histone H4 Arginine 3) in cell line TE11; test: PRMT5 Biomarker Assay; format: cell-based; conditions: Homo sapiens, TE-11; TE11 cells, 72 hours incubation, mean Alexa647-related intensity per cell
Protocol: PRMT5 Biomarker Assay Compounds of the invention may be tested for potency to inhibit symmetrical dimethylation of arginine in the following assay: The cell line TE11 was seeded at a density of 6,000 cells per well in 96 well optical quality tissue culture plates in DME medium and 10% foetal bovine serum, and allowed to adhere for 5 hours under standard culture conditions (37 degree Celsius, 5% CO2). Compound dilutions prepared in DMSO were added to the medium, with negative control wells reserved for treatment with DMSO only and maximum inhibition controls receiving a potent PRMT5 inhibitor compound at 1 μM concentration. After incubation for 72 hours, the cells were fixed with 3.7% formaldehyde in PBS for 30 minutes at room temperature, washed with phosphate buffer saline and blocked with Odyssey blocking buffer (LI-COR, Lincoln, Nebr.). Rabbit anti-Di-Methyl Histone H4 Arginine 3 specific antibody (Epigentek) in Odyssey blocking buffer was added and incubated for 14 hours at 4 degree Celsius. After washing, anti-rabbit secondary antibody labelled with Alexa647 dye (LifeTechnologies) and Hoechst 33342 (1 μg/mL, SigmaAldrich) were added for 1 hour incubation. Plates were washed and read on a PerkinElmer Envision 2103 in fluorescence intensity scanning mode (24 scans across the well area). The plates were imaged on a PerkinElmer Phenix high content imaging platform. Using a Columbus image analysis pipeline, individual nuclei were located by Hoechst 33342 stain and the methylation level was calculated from the Alexa647-related intensity in the same area. IC50 values were obtained from the mean Alexa647-related intensity per cell by calculating percent inhibition (%1) for each well relative to controls on the same plate (% l=(1-CN)/(CP−CN) where CN/CP are the averages of the negative/maximum inhibition controls, respectively), then fitting the %1 data vs. compound concentration [I] to % I=(A+((B−A)/(1+((C/[I])^D)))) where A is the lower asymptote, B is the upper asymptote, C is the IC50 value, and D is the slope.

Q: Which IC50 [1] does the source give for CCOc1nc(N2CCCOCC2)ccc1C(=O)NC[C@@H](O)[C@@H]1Cc2ccccc2CN1 [Example 3, 2-Ethoxy-N-((R)-2-hydroxy-2-((S)-1,2,3,4-tetrahydroisoquinolin-3-yl)ethyl)-6-(1,4-oxazepan-4-yl)nicotinamide dihydrochloride] here?
A: 70 nM

Q: And the IC50 [2]?
A: 5.6 nM

Q: With CCOc1c(C(=O)NC[C@@H](O)[C@@H]2Cc3ccccc3CN2)ccnc1NC1CCN(C(C)=O)CC1 [Example 8, 2-((1-Acetylpiperidin-4-yl)amino)-3-ethoxy-N—((R)-2-hydroxy-2-((S)-1,2,3,4-tetrahydroisoquinolin-3-yl)ethyl)isonicotinamide Dihydrochloride Salt] as the compound, how does the IC50 [1] read?
A: 135 nM

Q: And the IC50 [2]?
A: 112 nM

Q: What does the source list for CCOc1nc(N2CCC(O)CC2)ccc1C(=O)NC[C@@H](O)[C@@H]1Cc2ccccc2CN1 [Example 2, 2-Ethoxy-N-((R)-2-hydroxy-2-((S)-1,2,3,4-tetrahydroisoquinolin-3-yl)ethyl)-6-(4-hydroxypiperidin-1-yl)nicotinamide dihydrochloride]?
A: IC50 [1]: 102 nM; IC50 [2]: 23.3 nM

Q: CCOc1nc(N2CCN(C(C)=O)CC2)ccc1C(=O)NC[C@@H](O)[C@@H]1Cc2ccccc2CN1 [Example 4, 6-(4-Acetylpiperazin-1-yl)-2-ethoxy-N-((R)-2-hydroxy-2-((S)-1,2,3,4-tetrahydroisoquinolin-3-yl)ethyl)nicotinamide dihydrochloride] was tested. Which IC50 [1] did it give?
A: 26 nM

Q: And the IC50 [2]?
A: 1.3 nM

Q: How did the IC50 [1] turn out when CCOc1nc(N2CCOCC2)ccc1C(=O)NC[C@@H](O)[C@@H]1Cc2ccccc2CN1 [Example 9, 2-Ethoxy-N—((R)-2-hydroxy-2-((S)-1,2,3,4-tetrahydroisoquinolin-3-yl)ethyl)-6-morpholinonicotinamide] was run?
A: 251 nM

Q: What about the IC50 [2] of the same compound?
A: 31.5 nM

Q: How did the IC50 [1] turn out when CCOc1cnc(CC2CCN(C(C)=O)CC2)cc1C(=O)NC[C@@H](O)[C@@H]1Cc2ccccc2CN1 [Example 6, 2-((1-acetylpiperidin-4-yl)methyl)-5-ethoxy-N-((R)-2-hydroxy-2-((S)-1,2,3,4-tetrahydroisoquinolin-3-yl)ethyl)isonicotinamide dihydrochloride] was run?
A: 202 nM

Q: And the IC50 [2]?
A: 75.4 nM

Q: For CCOc1nc(N2CCN(C(=O)OC)CC2)ccc1C(=O)NC[C@@H](O)[C@@H]1Cc2ccccc2CN1 [Example 1, Methyl 4-(6-ethoxy-5-(((R)-2-hydroxy-2-((S)-1,2,3,4-tetrahydroisoquinolin-3-yl)ethyl)carbamoyl)pyridin-2-yl)piperazine-1-carboxylate dihydrochloride], which IC50 [1] is on record?
A: 37 nM

Q: What about the IC50 [2] of the same compound?
A: 0.2 nM

Q: With CCOc1nc(OC2CCN(C(C)=O)CC2)ccc1C(=O)NC[C@@H](O)[C@@H]1Cc2ccccc2CN1 [Example 7, 6-((1-acetylpiperidin-4-yl)oxy)-2-ethoxy-N-((R)-2-hydroxy-2-((S)-1,2,3,4-tetrahydroisoquinolin-3-yl)ethyl)nicotinamide hydrochloride salt] as the compound, how does the IC50 [1] read?
A: 135 nM

Q: What about the IC50 [2] of the same compound?
A: 16.5 nM

Q: For CC(=O)N1CCC(Oc2nccc(C(=O)NC[C@@H](O)[C@@H]3Cc4ccccc4CN3)c2Cl)CC1 [Example 5, 2-((1-Acetylpiperidin-4-yl)oxy)-3-chloro-N-((R)-2-hydroxy-2-((S)-1,2,3,4-tetrahydroisoquinolin-3-yl)ethyl)isonicotinamide dihydrochloride], which IC50 [1] is on record?
A: 26 nM

Q: What about the IC50 [2] of the same compound?
A: 6 nM
